This is an account of results in EP3046573B1, “AMYLIN ANALOGUES” (Zealand Pharma A/S, priority 2013, dated 2015).

As usually defined, the EC50 is the concentration that produces a half-maximal response.

Molecules are shown by their SMILES. Like-named read-outs stand apart in the source and are kept apart here. Numbered stars: 1 amine (or outer) side, 2 acyl side, 3 side chain; on linkers, the order of the positions; unused ones are H or OH. Bridge positions count the residues as written; N and C are the ends. Square brackets hold non-standard residues; d marks the D form. Peptide text beside a SMILES is read from it. * marks the point of attachment. Pro(4R-Bn) = O=C(O)[C@@H]1C[C@@H](Cc2ccccc2)CN1; C20 diacid = O=C(O)CCCCCCCCCCCCCCCCCCC(=O)*; γGlu = O=C(O)[C@H](CCC(=O)[*:2])N[*:1]; NMeI = CC[C@H](C)[C@H](NC)C(=O)O; Sar = CNCC(=O)O

The nature of series [1]: Solubility assessment (turbidity absorbance at 325 nm). It is filed as physicochemical. As to conditions: stock 2 mg/ml diluted 1:1, ambient temperature (typically 25°C), n=1; for Solubility, Acetate buffer pH 4: 100 mM acetate buffer pH 4.0; for Solubility, Acetate buffer pH 5: 100 mM acetate buffer pH 5.0; for Solubility, Histidine buffer pH 6: 100 mM histidine buffer pH 6.0; for Solubility, Histidine buffer pH 7: 100 mM histidine buffer pH 7.0; for Solubility, Phosphate buffer pH 6: 100 mM phosphate buffer pH 6.0; for Solubility, Phosphate buffer pH 7: 100 mM phosphate buffer pH 7.0; for Solubility, Phosphate buffer pH 7.5: 100 mM phosphate buffer pH7.5. An outline of the steps:
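Peptide stock (2 mg/ml, water pH 2.5) diluted 1:1 into 100 mM acetate (pH 4.0, 5.0), histidine (pH 6.0, 7.0) or phosphate (pH 6.0–7.5) buffer; absorbance at 325 nm read at about 25°C, n=1. A325 ≤ 0.02 taken as solubility ≥ 1 mg/ml.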

The target of series [2] is T1, human calcitonin receptor (hCTR2) (Homo sapiens, UniProt P30988).
T1 construct: expressed in transfected cells
T1 sequence (P30988 25-474): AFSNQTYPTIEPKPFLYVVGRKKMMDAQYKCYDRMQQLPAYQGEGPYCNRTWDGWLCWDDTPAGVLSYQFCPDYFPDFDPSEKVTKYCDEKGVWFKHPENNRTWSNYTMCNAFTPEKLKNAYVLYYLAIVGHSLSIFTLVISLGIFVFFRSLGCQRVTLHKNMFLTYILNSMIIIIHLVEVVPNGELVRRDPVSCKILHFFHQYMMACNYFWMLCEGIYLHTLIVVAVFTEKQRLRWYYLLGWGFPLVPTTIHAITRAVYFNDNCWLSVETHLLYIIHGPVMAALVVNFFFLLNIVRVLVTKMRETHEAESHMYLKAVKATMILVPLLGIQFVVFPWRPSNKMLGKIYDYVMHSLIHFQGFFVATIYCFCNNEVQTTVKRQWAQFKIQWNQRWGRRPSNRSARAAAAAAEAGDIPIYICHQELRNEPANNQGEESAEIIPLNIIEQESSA
Put plainly: hCTR2 assay: induction of cAMP (AlphaScreen cAMP Assay kit) in COS7 cells expressing hCTR2. The class given is cell-based. An outline of the steps: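 Stable hCTR2 clone in RAMP-naive COS7 cells; peptides titrated in Tyrode buffer (pH 7.4) with 100 µM IBMX, 0.1% casein, 15 min at 37° C. cAMP read by AlphaScreen after lysis; EC50 and efficacy relative to pramlintide from 4PL fit.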
Background: In Alpha technology, singlet oxygen from a donor bead excites a nearby acceptor bead.

Series [3] concerns the target T2, human amylin receptor 3 (hAMYR3) consisting of hCTR2 co-expressed with human Receptor Activity Modifying Protein 3 (hRAMP3) (Homo sapiens, UniProt O60896+P30988).
T2 construct: expressed in transfected cells
T2 sequence (P30988 25-474): T1 sequence (P30988 25-474)
T2 sequence (O60896 24-148 partner): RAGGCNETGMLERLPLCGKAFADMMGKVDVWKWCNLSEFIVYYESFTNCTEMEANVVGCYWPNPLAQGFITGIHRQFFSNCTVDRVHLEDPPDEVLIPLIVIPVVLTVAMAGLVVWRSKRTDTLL
The series can be described thus: hAMYR3 assay: induction of cAMP (AlphaScreen cAMP Assay kit) in COS7 cells expressing hAMYR3. The class given is cell-based. An outline of the steps:
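Stable COS7 clone co-expressing hCTR2 and hRAMP3, stimulated 15 min at 37° C with increasing peptide in Tyrode buffer pH 7.4 with 100 µM IBMX and 0.1% casein. cAMP measured by AlphaScreen after lysis; EC50 and % efficacy versus pramlintide from 4PL fit.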

With `CC[C@H](C)[C@@H](C(=O)N[C@@H](CC(C)C)C(=O)N[C@@H](CO)C(=O)N[C@@H](CO)C(=O)N[C@H](C(=O)N[C@@H](CC(N)=O)C(=O)N[C@H](C(=O)NCC(=O)N[C@@H](CO)C(=O)N[C@@H](CC(N)=O)C(=O)N[C@H](C(=O)N1C[C@H](Cc2ccccc2)C[C@H]1C(N)=O)[C@@H](C)O)C(C)C)[C@@H](C)O)N(C)C(=O)[C@H](C)NC(=O)CN(C)C(=O)[C@H](Cc1ccccc1)NC(=O)[C@H](CC(N)=O)NC(=O)[C@H](CC(N)=O)NC(=O)[C@H](CO)NC(=O)[C@H](CO)NC(=O)[C@H](CCCNC(=N)N)NC(=O)[C@H](Cc1c[nH]cn1)NC(=O)[C@H](CC(C)C)NC(=O)[C@H](Cc1ccccc1)NC(=O)[C@H](CCC(=O)O)NC(=O)[C@H](C)NC(=O)[C@H](CC(C)C)NC(=O)[C@H](CCCNC(=N)N)NC(=O)[C@H](CCC(N)=O)NC(=O)[C@@H](NC(=O)[C@H](C)NC(=O)[C@@H]1CSSC[C@H](NC(=O)[C@H](CCCNC(=N)N)NC(=O)CC[C@H](NC(=O)CCCCCCCCCCCCCCCCCCC(=O)O)C(=O)O)C(=O)N[C@@H](CC(N)=O)C(=O)N[C@@H]([C@@H](C)O)C(=O)N[C@@H](C)C(=O)N[C@@H]([C@@H](C)O)C(=O)N1)[C@@H](C)O` [Compound 114, [19CD]-isoGlu-RC()NTATC()ATQRLAEFLHRSSNNF-Gly(Me)-A-Ile(Me)-LSSTNVGSNT-Bep-NH2] ({C20 diacid-γGlu}-RCNTATCATQRLAEFLHRSSNNF[Sar]A[NMeI]LSSTNVGSNT[Pro(4R-Bn)]-NH2; disulfide 2-7), in series [1], the “Solubility, Acetate buffer pH 4” value is “SS (SS indicates solubility ≥ 1mg/ml)”; the “Solubility, Acetate buffer pH 5” value is “SS (SS indicates solubility ≥ 1mg/ml)”; the “Solubility, Histidine buffer pH 6” value was “SS (SS indicates solubility ≥ 1mg/ml)”; the “Solubility, Histidine buffer pH 7” value is on record as “II (II indicates solubility ≤ 1 mg/ml)”. Also, in series [1], the “Solubility, Phosphate buffer pH 6” value is “II (II indicates solubility ≤ 1 mg/ml)”; the “Solubility, Phosphate buffer pH 7” value is recorded as “II (II indicates solubility ≤ 1 mg/ml)”; the “Solubility, Phosphate buffer pH 7.5” value was “II (II indicates solubility ≤ 1 mg/ml)”. In series [2], the EC50 is 0.21 nM. In series [3], this molecule registered an EC50 of 0.18 nM.
As for `CC[C@H](C)[C@@H](C(=O)N[C@@H](CC(C)C)C(=O)N[C@@H](CO)C(=O)N[C@@H](CO)C(=O)N[C@H](C(=O)N[C@@H](CC(N)=O)C(=O)N[C@H](C(=O)NCC(=O)N[C@@H](CO)C(=O)N[C@@H](CC(N)=O)C(=O)N[C@H](C(=O)N[C@@H](Cc1ccccc1)C(N)=O)[C@@H](C)O)C(C)C)[C@@H](C)O)N(C)C(=O)[C@H](C)NC(=O)CN(C)C(=O)[C@H](Cc1ccccc1)NC(=O)[C@H](CC(N)=O)NC(=O)[C@H](CC(N)=O)NC(=O)[C@H](CO)NC(=O)[C@H](CO)NC(=O)[C@H](CCCNC(=N)N)NC(=O)[C@H](Cc1c[nH]cn1)NC(=O)[C@H](CC(C)C)NC(=O)[C@H](Cc1ccccc1)NC(=O)[C@H](CCC(=O)O)NC(=O)[C@H](C)NC(=O)[C@H](CC(C)C)NC(=O)[C@H](CCCNC(=N)N)NC(=O)[C@H](CCC(N)=O)NC(=O)[C@@H](NC(=O)[C@H](C)NC(=O)[C@@H]1CSSC[C@H](NC(=O)[C@H](CCCNC(=N)N)NC(=O)CC[C@H](NC(=O)CCCCCCCCCCCCCCCCCCC(=O)O)C(=O)O)C(=O)N[C@@H](CC(N)=O)C(=O)N[C@@H]([C@@H](C)O)C(=O)N[C@@H](C)C(=O)N[C@@H]([C@@H](C)O)C(=O)N1)[C@@H](C)O` [Compound 115, [19CD]-isoGlu-RC()NTATC()ATQRLAEFLHRSSNNF-Gly(Me)-A-Ile(Me)-LSSTNVGSNTF-NH2] ({C20 diacid-γGlu}-RCNTATCATQRLAEFLHRSSNNF[Sar]A[NMeI]LSSTNVGSNTF-NH2; disulfide 2-7), in series [1], the “Solubility, Acetate buffer pH 4” value is given as “SS (SS indicates solubility ≥ 1mg/ml)”; the “Solubility, Acetate buffer pH 5” value is given as “SS (SS indicates solubility ≥ 1mg/ml)”; the “Solubility, Histidine buffer pH 6” value was “SS (SS indicates solubility ≥ 1mg/ml)”; the “Solubility, Histidine buffer pH 7” value was “II (II indicates solubility ≤ 1 mg/ml)”. Besides, in series [1], the “Solubility, Phosphate buffer pH 6” value is “II (II indicates solubility ≤ 1 mg/ml)”; the “Solubility, Phosphate buffer pH 7” value was “SS (SS indicates solubility ≥ 1mg/ml)”; the “Solubility, Phosphate buffer pH 7.5” value is recorded as “II (II indicates solubility ≤ 1 mg/ml)”. Also, in series [2], the EC50 was 0.47 nM. In series [3], a half-maximal effect (EC50) was put at 0.37 nM.
As to `CC[C@H](C)[C@@H](C(=O)N[C@@H](CC(C)C)C(=O)N[C@@H](CO)C(=O)N[C@@H](CO)C(=O)N[C@H](C(=O)N[C@@H](CCC(=O)O)C(=O)N[C@H](C(=O)NCC(=O)N[C@@H](CO)C(=O)N[C@@H](CCC(=O)O)C(=O)N[C@H](C(=O)N1CCC[C@H]1C(N)=O)[C@@H](C)O)C(C)C)[C@@H](C)O)N(C)C(=O)[C@H](C)NC(=O)CN(C)C(=O)[C@H](Cc1ccccc1)NC(=O)[C@H](CO)NC(=O)[C@H](CO)NC(=O)[C@H](CO)NC(=O)[C@H](CO)NC(=O)[C@H](CCCNC(=N)N)NC(=O)[C@H](Cc1c[nH]cn1)NC(=O)[C@H](CC(C)C)NC(=O)[C@H](Cc1ccccc1)NC(=O)[C@H](CCC(=O)O)NC(=O)[C@H](C)NC(=O)[C@H](CC(C)C)NC(=O)[C@H](CCCNC(=N)N)NC(=O)[C@H](CCC(=O)O)NC(=O)[C@@H](NC(=O)[C@H](C)NC(=O)[C@@H]1CSSC[C@H](NC(=O)[C@H](CCCNC(=N)N)NC(=O)CC[C@H](NC(=O)CCCCCCCCCCCCCCCCCCC(=O)O)C(=O)O)C(=O)N[C@@H](CC(N)=O)C(=O)N[C@@H]([C@@H](C)O)C(=O)N[C@@H](C)C(=O)N[C@@H]([C@@H](C)O)C(=O)N1)[C@@H](C)O` [Compound 119, [19CD]-isoGlu-RC()NTATC()ATERLAEFLHRSSSSF-Gly(Me)-A-Ile(Me)-LSSTEVGSETP-NH2] ({C20 diacid-γGlu}-RCNTATCATERLAEFLHRSSSSF[Sar]A[NMeI]LSSTEVGSETP-NH2; disulfide 2-7), in series [1], the “Solubility, Acetate buffer pH 4” value is reported as “SS (SS indicates solubility ≥ 1mg/ml)”; the “Solubility, Acetate buffer pH 5” value is “SS (SS indicates solubility ≥ 1mg/ml)”; the “Solubility, Histidine buffer pH 6” value is “SS (SS indicates solubility ≥ 1mg/ml)”; the “Solubility, Histidine buffer pH 7” value was “SS (SS indicates solubility ≥ 1mg/ml)”. In series [1], the “Solubility, Phosphate buffer pH 6” value is “SS (SS indicates solubility ≥ 1mg/ml)”; the “Solubility, Phosphate buffer pH 7” value was “SS (SS indicates solubility ≥ 1mg/ml)”; the “Solubility, Phosphate buffer pH 7.5” value is “SS (SS indicates solubility ≥ 1mg/ml)”. For the same molecule, the EC50 in series [2] (cAMP induction in COS7 cells expressing hCTR2, average of a minimum of 3 determinations, read-out: hCTR2 EC50) is 0.17 nM. Further, the EC50 in series [3] (cAMP induction in COS7 cells expressing hAMYR3, average of a minimum of 3 determinations, read-out: hAMY R3 EC50) was determined as 0.3 nM.
